Measured values published in PubChem BioAssay (NCI).
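Tested at 5 concentrations; 48 h exposure; 96-well plates; endpoints linearly interpolated, else capped at highest concentration. The concentration for full growth arrest is given as TGI.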

Legend:
Test in all cases: growth of human tumour cells (NCI), 48 h
[1] = system: 786-0 renal
[2] = system: A498 renal
[3] = system: A549 NSCLC
[4] = system: ACHN renal
[5] = system: CAKI-1 renal
[6] = system: CCRF-CEM leukemia
[7] = system: COLO 205 colon
[8] = system: DLD-1 colon
[9] = system: DMS 114 small cell lung
[10] = system: DMS 273 small cell lung
[11] = system: EKVX NSCLC
[12] = system: HCT-116 colon
[13] = system: HCT-15 colon
[14] = system: HL-60(TB) leukemia
[15] = system: HOP-18 NSCLC
[16] = system: HOP-62 NSCLC
[17] = system: HOP-92 NSCLC
[18] = system: HT29 colon
[19] = system: IGROV1 ovarian
[20] = system: K-562 leukemia
[21] = system: KM12 colon
[22] = system: KM20L2 colon
[23] = system: LOX IMVI melanoma
[24] = system: LXFL 529 NSCLC
[25] = system: M14 melanoma
[26] = system: M19-MEL melanoma
[27] = system: MALME-3M melanoma
[28] = system: MOLT-4 leukemia
[29] = system: NCI-H226 lung
[30] = system: NCI-H23 lung
[31] = system: NCI-H460 lung
[32] = system: NCI-H522 lung
[33] = system: OVCAR-3 ovarian
[34] = system: OVCAR-4 ovarian
[35] = system: OVCAR-5 ovarian
[36] = system: OVCAR-8 ovarian
[37] = system: RPMI-8226 leukemia
[38] = system: RXF 393 renal
[39] = system: SF-268 CNS
[40] = system: SF-295 CNS
[41] = system: SF-539 CNS
[42] = system: SK-MEL-2 melanoma
[43] = system: SK-MEL-28 melanoma
[44] = system: SK-MEL-5 melanoma
[45] = system: SK-OV-3 ovarian
[46] = system: SN12C renal
[47] = system: SNB-75 CNS
[48] = system: SNB-78 CNS
[49] = system: SR leukemia
[50] = system: SW-620 colon
[51] = system: TK-10 renal
[52] = system: U251 CNS
[53] = system: UACC-257 melanoma
[54] = system: UACC-62 melanoma
[55] = system: UO-31 renal
[56] = system: XF 498 CNS

What does the source list for `C[N+]1=c2c3cccc4cccc(c(=O)n2CCC1)c43`?
TGI [1]: > 100 µM; TGI [2]: 36.5 µM; TGI [3]: 96.8 µM; TGI [4]: 51.8 µM; TGI [5]: 84 µM; TGI [6]: 28.9 µM; TGI [7]: 32.2 µM; TGI [8]: 46.9 µM; TGI [9]: 38.7 µM; TGI [10]: 56.7 µM; TGI [11]: 65 µM; TGI [12]: 43.6 µM; TGI [13]: > 100 µM; TGI [14]: 25.3 µM; TGI [15]: > 100 µM; TGI [16]: 86.2 µM; TGI [17]: 93.3 µM; TGI [18]: 52.5 µM; TGI [19]: > 100 µM; TGI [20]: 32 µM; TGI [21]: > 100 µM; TGI [22]: 47.2 µM; TGI [23]: 29.4 µM; TGI [24]: 40.7 µM; TGI [25]: 33.2 µM; TGI [26]: 35.8 µM; TGI [27]: 32.9 µM; TGI [28]: 58.9 µM; TGI [29]: 36.5 µM; TGI [30]: 39.1 µM; TGI [31]: 37.7 µM; TGI [32]: 30.2 µM; TGI [33]: 55.1 µM; TGI [34]: 42.9 µM; TGI [35]: 36.5 µM; TGI [36]: 39.9 µM; TGI [37]: 52.3 µM; TGI [38]: 60.8 µM; TGI [39]: 60.2 µM; TGI [40]: > 100 µM; TGI [41]: > 100 µM; TGI [42]: 35.3 µM; TGI [43]: 39.6 µM; TGI [44]: 32.5 µM; TGI [45]: 80.1 µM; TGI [46]: 52.7 µM; TGI [47]: 78.7 µM; TGI [48]: 94.6 µM; TGI [49]: 46.9 µM; TGI [50]: > 100 µM; TGI [51]: 56.4 µM; TGI [52]: > 100 µM; TGI [53]: 32.9 µM; TGI [54]: 34.1 µM; TGI [55]: 39.5 µM; TGI [56]: 38 µM
